How the values were obtained:
[1] = test system: histamine-induced bronchospasm in guinea pigs; assay: protection from histamine-induced bronchospasm; assay type: in vivo; conditions: 239 mg/kg i.p.
Procedure: The anti-histamine effects of the Nigella sativa L. polyunsaturated fatty acid fraction on induced bronchospasm in guinea pigs was evaluated using the methods described by Armitage et al, Brit. J Pharmacol., 16:59-76 (1961). Willis, J. Pharm. Pharmacol., 21:126 (1969).
The prophylactic anti-allergic effects were evaluated in guinea pigs (300-400 grams). The animals were divided into 5 groups (10 animals each) and treated i.p. as follows: (1) animals treated with saline (control); (2) animals treated with diphenydramine (239 mg/kg/day); (3) animals treated with 50 mg/kg polyunsaturated fatty acid fraction; (4) animals treated with 100 mg/kg polyunsaturated fatty acid fraction; and (5) animals treated with 150 mg/kg polyunsaturated fatty acid fraction.
Animals were exposed 30 minutes after their i.p. injection of diphenydramine and polyunsaturated fatty acid fraction to histamine aerosol (1%) for 3 minutes. Bronchospasm and loss of rightening after 30, 60 and 90 minutes was calculated according to the following formula (Dawson and Sweatman, Br. J. Pharmacol., 71:387-398 (1980)): [formula]

[2] = test system: guinea pigs exposed to histamine aerosol (0.25%); assay: prophylactic anti-asthmatic effect, preconvulsive time; assay type: in vivo; conditions: 5 microg/kg, treated for 21 days
Procedure: This example explains in vivo studies to evaluate the prophylactic (protective) anti-asthmatic effect of the Nigella sativa L. polyunsaturated fatty acid fraction. The prophylactic antiasthmatic effect was evaluated in vivo by measurement of the preconvulsive time in guinea pigs exposed to histamine aerosol (0.25%).
Guinea pigs were divided into three groups with 8 animals per group. The first group received a saline injection to serve as negative control. The second group received ketotifen, which is the standard treatment to serve as positive control. The third group received 200 mg/kg of the Nigella sativa L. polyunsaturated fatty acid fraction.
Animals in all groups were treated for 21 days, after which they were exposed to histamine (0.25%) aerosol and the preconvulsive time was recorded.

[3] = test system: ova albumin inhalation in sensitized guinea pigs; assay: time to onset of tachypnea in sensitized animals; assay type: in vivo; conditions: 50 microg/kg, treated for 21 days
Procedure: The second protocol involved sensitized animals. Animals were sensitized by injecting ova albumin in two doses 100 mg. each (S.C. and I.P., simultaneously). Animals were resensitized 15 days later. Guinea pigs were divided into three groups with 8 animals per group. The first group received a saline injection to serve as negative control. The second group received ketotifen which is the standard treatment to serve as positive control. The third group received 200 mg/kg each of Nigella sativa L. polyunsaturated fatty acid fraction. Animals in all groups were treated for 21 days following which they were exposed to ova albumin inhalation and time to onset of tachypnea was recorded as shown in the table below (*Statistically significant from the control group (P<0.05)).

[4] = test system: writhing induced by parabenzoquinone; assay: analgesic activity, writhing method; assay type: in vivo, mice; conditions: 5.0 mg/100 g.b.w.
Procedure: The analgesic activity of the Nigella sativa L. polyunsaturated fatty acid fraction was studied using the writhing method described by Okun et al. (1963). Thirty mature mice of both sexes weighing from 20 to 25 gm were divided into 3 groups of 10 mice each. The first group served as a control and the second group served as a standard (treated with paracetamol in a dose of 5 mg/100 gm body weight). The third group was injected subcutaneously with the Nigella sativa L. polyunsaturated fatty acid fraction. After 30 minutes, mice were injected intraperitoneally with 0.25 ml of a solution of parabenziquinone (0.2 mg/ml in saline). […] Animals devoid of writhing in each group were recorded and the analgesic potencies of paracetamol and the Nigella sativa L. polyunsaturated fatty acid fraction were determined as percent protection against writhing.

[5] = test system: Streptococcus pyogenes; assay: Comparative antibacterial activity with ampicillin, bore method; assay type: cell-based; conditions: 1 μg/mL, read-out: Diameter of Zone of Inhibition
Procedure: (§1) […] The values are the average of three separate experiments. The anti-bacterial activity of the tested isolates was detected in vitro using the bore method. The nutrient agar medium containing one bacterial strain was poured into sterilized petri-dishes, each 20×120 mm, then left for 10 minutes to dry. Using the borer No. 5, a central bore was made in each plate, then another 4 were arranged it. The effect of different concentrations of the tested isolates on certain microorganisms was tested in 2 plates.
(§2) The comparative antibacterial activity of ampicillin and the Nigella sativa L. polyunsaturated fatty acid fraction against certain bacterial strains (Streptococcus pyogenes, Corynebacterium pyogenes and Salmonella typhi murium) was preformed in vitro using the bore method as described by Cooper and Woodman (1964) as previously described. The effect of ampicillin (1 μg/mL) and the Nigella sativa L. polyunsaturated fatty acid fraction (at 1 mg/ml) on the previously mentioned bacteria was tested.

[6] = test system: Salmonella typhi murium; assay: as above; assay type: cell-based; conditions: Salmonella enterica, read-out: Diameter of Zone of Inhibition
Procedure: as §1, §2

[7] = test system: Corynebacterium pyogenes; assay: as above; assay type: cell-based; conditions: 1 μg/mL, read-out: Diameter of Zone of Inhibition
Procedure: as §1, §2

[8] = test system: rat paw formalin edema; assay: anti-inflammatory activity, rat paw formalin edema; assay type: in vivo, rats; conditions: 3 mg/100 g.b.w. intraperitoneally
Procedure: The anti-inflammatory activity of the Nigella sativa L. polyunsaturated fatty acid fraction was carried out in rats using a modification of rat paw formalin edema as described by Domemjoz et al. (1965).
Fifteen mature albino rats of both sexes weighing 150-200 gm were divided into 3 groups of 5 rats each. At the beginning of the experiment, the thickness of the rat left hind paw was measured using a Vernier caliper. Thereafter, rats of the first group were kept as a control and those of the second group (standard) were injected intraperitoneally with phenylbutazone in a dose of 3 mg/100 gm body weight. Rats of the third group were injected with the Nigella sativa L. polyunsaturated fatty acid fraction. After 30 minutes, inflammation was induced by subcutaneous injection of 0.1 mL of 6% solution of formalin in normal saline into the left hind paw.
The anti-inflammatory effect of the Nigella sativa L. polyunsaturated fatty acid fraction was estimated by comparing the magnitude of the paw swelling in the pretreated animals with that of the control animals. Measurement of rat paw thickness was carried out at hourly intervals for a period of 3 hours.

CN(C)CCOC(c1ccccc1)c1ccccc1 [diphenhydramine]
% protection 30 minutes [1]: 100%
% protection 60 minutes [1]: 100%
% protection 90 minutes [1]: 90%

CN1CCC(=C2c3ccccc3CC(=O)c3sccc32)CC1 [ketotifen]
% of Prophylaxis (Protection) [2]: 82.85%
% of Prophylaxis [3]: 44.4%

CC(=O)Nc1ccc(O)cc1 [Paracetamol, paracetamol]
% Protection, 120 minutes [4]: 20%
% protection 30 minutes [4]: 100%
% protection 60 minutes [4]: 60%
% protection 90 minutes [4]: 40%

CC1(C)S[C@@H]2[C@H](NC(=O)[C@H](N)c3ccccc3)C(=O)N2[C@H]1C(=O)O [Ampicillin, ampicillin]
zone of inhibition at 1 µg/mL [5]: 26.7 ± 0.3 mm
zone of inhibition at 1 µg/mL [6]: 13.1 ± 0.2 mm
zone of inhibition at 1 µg/mL [7]: 44.7 ± 0.8 mm

CCCCC1C(=O)N(c2ccccc2)N(c2ccccc2)C1=O [Phenylbutazone, phenylbutazone]
Rat Paw Thickness, 1 Hour [8]: 5.85 ± 0.15 mm
Rat Paw Thickness, 2 Hours [8]: 5.71 ± 0.09 mm
Rat Paw Thickness, 3 Hours [8]: 5.82 ± 0.05 mm
